Measured values: publication PMC12750388, “Coumarin-1,2,3-Triazole Conjugates as Molecular Scaffolds for the Selective Induction of ROS-Driven Apoptosis in Cancer Cells in the Development of Pyruvate Kinase M2 Inhibitors” (ACS Omega, 2025)
pIC50: −log10 of the molar value. Several values for one entry are separate records, joined by “and”; a condition that tells them apart may be missing. Equal entries are not always repeated.

Experiments:
[1] = test system: caspases 3 and 7 in SCC-9 cells; test: Caspase-Glo 3/7 assay; format: cell-based, human; settings: SCC-9, 2 × IC50, 12 and 24 h
Description: Analysis of activation of caspases 3 and 7 was assessed by using the Caspase-Glo 3/7 Assay Kit (Promega Corporation, Madison, WI, USA; G8090). The reagent provided by the kit causes cell lysis; therefore, parallelly, a cell viability assay using violet crystal was performed to normalize the detection of active caspases by viable cells. Caspases 3 and 7 procedures consisted of seeding 5 × 10^3 SCC-9 cells in a 96-well plate. […] A plate with wells without cells was used as a control. Cells and cell-free wells remained in treatment at times of interest. Then, caspase activity was detected according to the manufacturer’s instructions. Results were obtained using a TD 20/20 luminometer (Turner Designs, Sunnyvale, CA, USA). […] Then the medium was removed, and the wells were gently washed with PBS. PBS was removed, and cells were fixed with 100% alcohol that was removed after 10 min. Cells were stained with 0.05% violet crystal for 10 min. Wells were gently washed with deionized water, and […] methanol was added to each well, followed by agitation of the plate for 10 min. Absorbance of wells was read in an EPOCH (BioTek Instruments, Winooski, VT, USA) at an absorbance of 595 nm.

4T1 = test: MTT cell viability assay, 4T1; format: cell-based, murine
PKM2 [2] = molecular target: T1, PKM2 (Homo sapiens, UniProt P14618); test: LDH-coupled Pyruvate Kinase M2 activity assay; format: biochemical
T1 construct: purchased Sigma-Aldrich Co., St. Louis, MO, USA
T1 sequence (P14618 whole entry): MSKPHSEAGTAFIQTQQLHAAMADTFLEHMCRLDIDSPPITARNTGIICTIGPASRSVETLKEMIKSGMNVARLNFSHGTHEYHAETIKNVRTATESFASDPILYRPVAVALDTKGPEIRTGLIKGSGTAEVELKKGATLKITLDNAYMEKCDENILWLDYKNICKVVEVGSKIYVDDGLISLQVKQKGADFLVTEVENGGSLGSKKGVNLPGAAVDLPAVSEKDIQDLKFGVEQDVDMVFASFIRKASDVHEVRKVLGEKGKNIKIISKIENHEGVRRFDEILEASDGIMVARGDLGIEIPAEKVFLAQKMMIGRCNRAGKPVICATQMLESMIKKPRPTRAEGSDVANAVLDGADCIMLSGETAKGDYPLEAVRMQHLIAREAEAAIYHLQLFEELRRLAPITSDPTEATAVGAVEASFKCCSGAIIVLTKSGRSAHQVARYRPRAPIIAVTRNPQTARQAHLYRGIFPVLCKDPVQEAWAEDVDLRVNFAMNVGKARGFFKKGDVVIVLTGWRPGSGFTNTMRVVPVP
Description: LDH-coupled Pyruvate Kinase M2 (PKM2) activity assay was performed according to published protocols. For the assay, a pH 7.5 buffer solution composed of 50 mM Tris, 100 mM KCl, and 10 mM MgCl2 was prepared, to which 30 ng of human recombinant PKM2 (Sigma-Aldrich Co., St. Louis, MO, USA), 0.6 mM adenosine diphosphate (ADP), 0.5 mM phosphoenolpyruvate (PEP), 180 μM NADH, 10 μM fructose 1,6-bisphosphate (FBP), and 8 units of LDH were added. PEP was added only right before measurement to start the reaction. The change in absorbance at 340 nm due to oxidation of NADH by LDH was measured from 0 to 30 min using an EPOCH microplate spectrophotometer (BioTek Instruments, Winooski, VT, USA). The activity of PK was defined as % in relation to the indicated control.

SCC-9 cells [3] = test: Videomicroscopy by time-lapse; format: cell-based, human; settings: SCC-9, 2 × IC50 (24.58 μM), up to 48 h
Description: Cells were maintained in a controlled chamber containing 5% CO2 and 37 °C. Images were captured every minute and integrated using Framelapse software (Neximo Laboratories, Uttar Pradesh, India).

HCT116 = test: MTT cell viability assay, HCT116; format: cell-based, human
PKM2 [4] = molecular target: T1, PKM2; test: Quantification of ATP production from PKM2 reaction; format: biochemical; settings: 1 × IC50 of 7f (55.13 μM)
Description: The measurement of PKM2 activity through ATP production was conducted to confirm whether the enzymatic inhibition observed in the previous assay was indeed due to PKM2. The master mix was prepared as indicated above. In a microtube containing the master mix prepared in the presence of 1 × IC50 7f, the control received the addition of 0.5 mM PEP for 3 min. Afterward, CellTiter-Glo reagent (Promega, Madison, WI, USA) was added as indicated by the manufacturer’s instructions, and the samples were kept shielded from light for 2 min. After the specified time, the sample was taken for reading in a Turner Designs TD 2020 luminometer (Turner Designs, Sunnyvale, CA, USA).

SCC-9 cells [5] = test: Cytotoxicity assay (cell death inhibition) with z-VAD-fmk and necrostatin-1; format: cell-based; settings: SCC-9, 2 × IC50 7f, 24 h
Description: This investigation consists of pretreating cells with different death inhibitors. For this assay, day SCC-9 cells were seeded in a 96-well plate, and the next day, they were pretreated for 2 h with 20 μM z-VAD-fmk (ZVAD) (Promega Corporation, Madison, WI, USA) and 20 μM necrostatin-1 (Nec-1) (Sigma-Aldrich Co., St. Louis, MO, USA) alone or in combination. […] The plate was incubated for 24 h, and the result was determined through an MTT cell viability assay. The absorbance was measured with an EPOCH (BioTek Instruments, Winooski, VT, USA) spectrometer at 560 nm.

C57BL/6 mice = test: Acute toxicity assay in vivo; settings: 14 days
Description: All experiments were performed in accordance with the Brazilian guidelines and regulations. Dosing and analysis were performed according to 423 OECD guidelines and reviewed by ref. . An experimental approach was conducted using experimental groups (n = 3) in which each group received a single dose of 7f (100, 200, or 400 mg/kg). […] Control group animals received only 3% DMSO in PBS vehicle. Animals were examined every day, twice a day, for mortality and morbidity for 14 days, and all animals were sacrificed by cervical dislocation. The animals’ body weight and average food consumption were measured every 7 days. […]
increased rear arching, and mobility impairment. The necropsy included an examination of the external characteristics of the carcass; external body orifices; the abdominal, thoracic, and cranial cavities; organs/tissues of liver, thymus, right kidney, right testicle, heart, and lung.
Animals upon euthanasia had their organs evaluated for signs of toxicity or morphological […]
are presented: changes in body weight and food intake, signs of morbidity, possible mortality, and macroscopic alterations in collected organs. Each experimental group consisted of three C57BL/6 mice. The animals were monitored for 14 days, after which they were euthanized and necropsied. […]

[6] = versus human gingival fibroblast
[7] = 100 mg/kg single intraperitoneal dose
[8] = 200 mg/kg single intraperitoneal dose
[9] = 400 mg/kg single intraperitoneal dose

O=C1C=C(OCc2cn(CCCOc3cc(=O)oc4ccccc34)nn2)C(=O)c2ccccc21 [Compound 7f, 2-((1-(3-((2-Oxo-2H-chromen-4-yl)oxy)propyl)-1H-1,2,3-triazol-4-yl)methoxy)naphthalene-1,4-dione]
caspases 3 and 7 activity, luminescent signal versus DMSO [1]: approximately 2 fold
pIC50 (4T1; Mus musculus, 4T1, MTT, murine breast cancer): 5.12
SI 4T1 (4T1; [6]): 2.98
PKM2 % of activity relative to control (PKM2 [2]; 0.8 µM 7f, experimental replicates 1-5, LDH-coupled assay, vs DMSO): 96.14% and 81.36% and 72.11% and 97.25% and 76.4557%
PKM2 % of activity relative to control (PKM2 [2]; 4 µM 7f, experimental replicates 1-5, LDH-coupled assay, vs DMSO): 88.82% and 107.0205% and 91.86% and 99.18%
remaining activity at 4 µM (PKM2 [2]; 4 µM 7f, experimental replicates 1-5, LDH-coupled assay, vs DMSO, read-out: PKM2 % of activity relative to control): 96.2%
PKM2 % of activity relative to control (PKM2 [2]; 20 µM 7f, experimental replicates 1-5, LDH-coupled assay, vs DMSO): 87.42% and 68.0203% and 47.4026% and 85.71% and 68.03%
PKM2 % of activity relative to control (PKM2 [2]; 100 µM 7f, experimental replicates 1-5, LDH-coupled assay, vs DMSO): 42.39% and 13.86% and 46.13% and 34.17% and 45.14%
pIC50 (PKM2 [2]; LDH-coupled assay, 0.8 μM to 100 μM, 30 min): 4.26
proliferation and morphology by video microscopy (SCC-9 cells [3]): pronounced inhibition of proliferation
pIC50 (HCT116; HCT-116, MTT, human colon carcinoma): 5.17
SI HCT116 (HCT116; [6]): 3.38
inhibition at 55.13 µM (PKM2 [4]): ~50%
cell death after pretreatment with 20 μM z-VAD-fmk (ZVAD) (SCC-9 cells [5]): significantly attenuated
cytotoxic effect after pretreatment with 20 μM necrostatin-1 (Nec-1), alone or with ZVAD (SCC-9 cells [5]): failed to reverse the cytotoxic effect
Change in body weight (C57BL/6 mice; [7]): Absent
Change in food consumption (C57BL/6 mice; [7]): Absent
Gross Necropsy (C57BL/6 mice; [7]): Absent
Morbidity (C57BL/6 mice; [7]): Absent
Change in body weight (C57BL/6 mice; [8]): Absent
Change in food consumption (C57BL/6 mice; [8]): Absent
Gross Necropsy (C57BL/6 mice; [8]): Absent
Morbidity (C57BL/6 mice; [8]): Absent
Change in body weight (C57BL/6 mice; [9]): Absent
Change in food consumption (C57BL/6 mice; [9]): Absent
Gross Necropsy (C57BL/6 mice; [9]): Absent
Morbidity (C57BL/6 mice; [9]): Absent
